In paper PMC9376946, “Peptide-RNA Coacervates as a Cradle for the Evolution of Folded Domains” (Journal of the American Chemical Society, 2022):

Assays:
polyU [1] = settings: ref [17]; cited from earlier work
Source text: The basis for the work presented here is the construct Precursor-Arg (PA).[17] PA consists of a single helix-hairpin-helix (HhH) motif and is constructed from an alphabet of only 10 amino acid types. The sequence of PA (Table 1) is biased specifically for those amino acids that were thought to be present on the early earth[35] and is the result of an ancestor sequence reconstruction of the (HhH)2-Fold protein family followed by an experimental deconstruction.[17] PA has two positively charged patches—located at the N-terminus of the first α-helix (residues 1–4, RIRR) and on the second α-helix ... || Using the ColabFold implementation of AlphaFold2,[33] a model of a putative PA dimer was predicted (Figure 1A). […] The dimerization potential of PA was further confirmed by MD simulations (Figure S6). […] This option relies on the dimer having conformations where positive and negative charges are separated, allowing for efficient bidentate binding to the polyU.

polyU [2] = experiment: Coacervate (droplet) formation with polyU, optical microscopy; format: physicochemical
Procedure: Optical microscopy images of phase-separated samples were taken at the de Picciotto Cancer Cell Observatory Life Sciences Core Facilities (Weizmann Institute of Science) using a 100× objective (oil immersion) on a Leica DMI8 microscope with differential interface contrast. We used 1–2 μL of the sample to make a small drop in an imaging chamber produced by attaching a coverslip to a clean glass slide using a thin strip of double-sided tape (AJ Sign World). Images were processed using the software package Fiji (NIH).
Lyophilized, spin-labeled peptides were dissolved in Milli-Q water and centrifuged at 4000 rpm for 10 min to remove insoluble aggregates. The soluble fractions were used to prepare stock solutions of 250–500 μM peptide. Labeled peptide concentrations were determined by comparing the area under the curve of the EPR signal against that of standard solutions of 10–285 μM TEMPO. For the EPR measurements in D2O, 200 μL of the stock solution was lyophilized and re-dissolved in D2O. The concentration of the unlabeled peptide stock solutions was determined using the bicinchoninic acid assay (Thermo Fisher Scientific) and ranged from 0.8 to 1.2 mM peptide. A stock solution of 500 mM MES, pH 5.6 was used to adjust all samples to a final concentration of 50 mM MES, pH 5.6. Aliquots of 10 mg/mL polyuridylic acid (polyU; Sigma Aldrich) were prepared in Milli-Q water and diluted as necessary. For CW-EPR measurements, a quartz capillary of 0.6 mm i.d. and 0.84 mm o.d. was filled with 7–8 μL of the sample and sealed with Critoseal (Fisherbrand, Fisher Scientific) at one end. A single capillary was placed in an X-band EPR tube of 2 mm i.d. and 2.4 mm o.d. for measurements, except for spin concentration below 50 μM, where two capillaries were used.
Each sample was freshly prepared and the time to collect […] CW-EPR data was 30–40 min.

[3] = earlier study, trifluoroethanol titration followed by CD; ref [17]; cited from earlier work

coacervate formation with polyU (polyU [2]; concentrations not given): did not form coacervates with polyU
Sequence: RVRRSEIPLGIELEAGTLRLARRPEIRVA [SA]
coacervate formation or precipitation with polyU (earlier study) (polyU [1]): precipitates with polyU rather than forms coacervates
coacervate formation with polyU (polyU [2]; unlabeled peptide, 1 mg/mL polyU, aggregation also previously reported, ref [17]): did not form coacervates but rather aggregates
α-helical propensity [3]: lower α-helical propensity than PA
